Laboratory results from US20230085307A1, “PYRIDAZINONE COMPOUND AND HERBICIDE” (NISSAN CHEMICAL CORPORATION, priority 2019, published 2023).

Legend:
[1] = system: Chinese sprangletop; assay: Test Example 3: herbicidal effect by foliage application, Wagner pot (Table 18, symbol D); type: in vivo, chinese sprangletop (Leptochloa chinensis)
Procedure, shortened: (§1)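 Plants were sown in alluvial soil held under 0.1–0.5 cm standing water and grown 14 days in a greenhouse at 25–30 °C. An emulsifiable formulation, water-diluted to the set dose, was then sprayed onto the foliage, and effects were scored three weeks later using previously defined criteria.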

[2] = system: Italian ryegrass; assay: Test Example 4: herbicidal effect by soil treatment (Table 19, symbol K); type: in vivo, Italian ryegrass (Lolium multiflorum)
Procedure, shortened: (§2)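 Three weeks of greenhouse growth at 25° C. to 30° C. followed a uniform surface spray of water-diluted emulsion at a predetermined herbicide amount. Seeds had been sown beforehand under about 1.5 cm of sterilized diluvial soil. Grading followed criteria set out in an earlier test.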

[3] = system: wild oat; assay: Test Example 4: herbicidal effect by soil treatment (Table 19, symbol I); type: in vivo, wild oat (Avena fatua)
Procedure, shortened: as §2

[4] = system: green foxtail; assay: Test Example 4: herbicidal effect by soil treatment (Table 19, symbol G); type: in vivo, green foxtail (Setaria viridis)
Procedure, shortened: as §2

[5] = system: chickweed; assay: Test Example 4: herbicidal effect by soil treatment (Table 19, symbol P); type: in vivo, common chickweed (Stellaria media)
Procedure, shortened: as §2

[6] = system: redroot pigweed; assay: Test Example 5: herbicidal effect by foliage application, plastic box (Table 20, symbol N); type: in vivo, redroot pigweed (Amaranthus retroflexus)
Procedure, shortened: (§3)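 Plants sown in sterilized diluvial soil and grown 14 days in a greenhouse at 25° C to 30° C, then sprayed on the foliage with the compound's emulsion diluted in water to a predetermined herbicide amount. Injury to weeds and crops scored three weeks after application on a visual rating scale.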

[7] = system: blackgrass; assay: Test Example 4: herbicidal effect by soil treatment (Table 19, symbol J); type: in vivo, blackgrass (Alopecurus myosuroides)
Procedure, shortened: as §2

[8] = system: Italian ryegrass; assay: Test Example 5: herbicidal effect by foliage application, plastic box (Table 20, symbol K); type: in vivo, Italian ryegrass (Lolium multiflorum)
Procedure, shortened: as §3

[9] = system: windgrass; assay: Test Example 5: herbicidal effect by foliage application, plastic box (Table 20, symbol L); type: in vivo, windgrass (Apera spica-venti)
Procedure, shortened: as §3

[10] = system: redroot pigweed; assay: Test Example 4: herbicidal effect by soil treatment (Table 19, symbol N); type: in vivo, redroot pigweed (Amaranthus retroflexus)
Procedure, shortened: as §2

[11] = system: velvetleaf; assay: Test Example 4: herbicidal effect by soil treatment (Table 19, symbol M); type: in vivo, velvetleaf (Abutilon theophrasti)
Procedure, shortened: as §2

[12] = system: southern crabgrass; assay: Test Example 4: herbicidal effect by soil treatment (Table 19, symbol F); type: in vivo, southern crabgrass (Digitaria ciliaris)
Procedure, shortened: as §2

[13] = system: southern crabgrass; assay: Test Example 5: herbicidal effect by foliage application, plastic box (Table 20, symbol F); type: in vivo, southern crabgrass (Digitaria ciliaris)
Procedure, shortened: as §3

[14] = system: blackgrass; assay: Test Example 5: herbicidal effect by foliage application, plastic box (Table 20, symbol J); type: in vivo, blackgrass (Alopecurus myosuroides)
Procedure, shortened: as §3

[15] = system: velvetleaf; assay: Test Example 5: herbicidal effect by foliage application, plastic box (Table 20, symbol M); type: in vivo, velvetleaf (Abutilon theophrasti)
Procedure, shortened: as §3

[16] = system: persian speedwell; assay: Test Example 5: herbicidal effect by foliage application, plastic box (Table 20, symbol R); type: in vivo, Persian speedwell (Veronica persica)
Procedure, shortened: as §3

[17] = system: lambsquarters; assay: Test Example 4: herbicidal effect by soil treatment (Table 19, symbol O); type: in vivo, lambsquarters (Chenopodium album)
Procedure, shortened: as §2

[18] = system: lambsquarters; assay: Test Example 5: herbicidal effect by foliage application, plastic box (Table 20, symbol O); type: in vivo, lambsquarters (Chenopodium album)
Procedure, shortened: as §3

[19] = system: barnyard grass; assay: Test Example 3: herbicidal effect by foliage application, Wagner pot (Table 18, symbol H); type: in vivo, barnyard grass (Echinochloa crus-galli)
Procedure, shortened: as §1

[20] = system: chickweed; assay: Test Example 5: herbicidal effect by foliage application, plastic box (Table 20, symbol P); type: in vivo, common chickweed (Stellaria media)
Procedure, shortened: as §3

[21] = system: green foxtail; assay: Test Example 5: herbicidal effect by foliage application, plastic box (Table 20, symbol G); type: in vivo, green foxtail (Setaria viridis)
Procedure, shortened: as §3

[22] = system: wild oat; assay: Test Example 5: herbicidal effect by foliage application, plastic box (Table 20, symbol I); type: in vivo, wild oat (Avena fatua)
Procedure, shortened: as §3

[23] = system: rice flat sedge; assay: Test Example 3: herbicidal effect by foliage application, Wagner pot (Table 18, symbol E); type: in vivo, rice flat sedge (Cyperus iria)
Procedure, shortened: as §1

[24] = system: windgrass; assay: Test Example 4: herbicidal effect by soil treatment (Table 19, symbol L); type: in vivo, windgrass (Apera spica-venti)
Procedure, shortened: as §2

[25] = system: persian speedwell; assay: Test Example 4: herbicidal effect by soil treatment (Table 19, symbol R); type: in vivo, Persian speedwell (Veronica persica)
Procedure, shortened: as §2

[26] = system: barnyard grass; assay: Test Example 4: herbicidal effect by soil treatment (Table 19, symbol H); type: in vivo, barnyard grass (Echinochloa crus-galli)
Procedure, shortened: as §2

[27] = system: barnyard grass; assay: Test Example 5: herbicidal effect by foliage application, plastic box (Table 20, symbol H); type: in vivo, barnyard grass (Echinochloa crus-galli)
Procedure, shortened: as §3

[28] = foliage application, AAH 80 g/ha, three weeks after application
[29] = amount of applied herbicide 320 g/ha
[30] = 320 g/ha, foliage application after 14-day growth, evaluated three weeks after application

COc1nn(C)c(=O)c(-c2c(-c3ccc(-c4ccccc4)cc3)sc3ccccc23)c1O [1-166]
herbicidal effect on D (Chinese sprangletop), rating 0-5 ([1]; 80 g/ha): 4 (Herbicidal rate of 70% or more and less than 90%) | K: Italian ryegrass, herbicidal effect rating ([2]; AAH 80 g/ha): 0 (Herbicidal rate of 5% or less (almost no effect)) | I: wild oat, herbicidal effect rating ([3]; AAH 80 g/ha): 0 (Herbicidal rate of 5% or less (almost no effect)) | G: green foxtail, herbicidal effect rating ([4]; AAH 80 g/ha): 0 (Herbicidal rate of 5% or less (almost no effect)) | P: chickweed, herbicidal effect rating ([5]; AAH 80 g/ha): 4 (Herbicidal rate of 70% or more and less than 90%) | N: redroot pigweed, herbicidal effect [6, 28]: 3 (Herbicidal rate of 40% or more and less than 70%) | J: blackgrass, herbicidal effect rating ([7]; AAH 80 g/ha): 0 (Herbicidal rate of 5% or less (almost no effect)) | K: Italian ryegrass, herbicidal effect [8, 28]: 0 (Herbicidal rate of 5% or less (almost no effect)) | L: windgrass, herbicidal effect [9, 28]: 0 (Herbicidal rate of 5% or less (almost no effect)) | N: redroot pigweed, herbicidal effect rating ([10]; AAH 80 g/ha): 0 (Herbicidal rate of 5% or less (almost no effect)) | M: velvetleaf, herbicidal effect rating ([11]; AAH 80 g/ha): 0 (Herbicidal rate of 5% or less (almost no effect)) | F: southern crabgrass, herbicidal effect rating ([12]; AAH 80 g/ha): 0 (Herbicidal rate of 5% or less (almost no effect)) | F: southern crabgrass, herbicidal effect [13, 28]: 0 (Herbicidal rate of 5% or less (almost no effect)) | J: blackgrass, herbicidal effect [14, 28]: 0 (Herbicidal rate of 5% or less (almost no effect)) | M: velvetleaf, herbicidal effect [15, 28]: 0 (Herbicidal rate of 5% or less (almost no effect)) | R: persian speedwell, herbicidal effect [16, 28]: 5 (Herbicidal rate of 90% or more (almost completely withered)) | O: lambsquarters, herbicidal effect rating ([17]; AAH 80 g/ha): 0 (Herbicidal rate of 5% or less (almost no effect)) | O: lambsquarters, herbicidal effect [18, 28]: 2 (Herbicidal rate of 20% or more and less than 40%) | herbicidal effect on H (barnyard grass), rating 0-5 ([19]; 80 g/ha): 4 (Herbicidal rate of 70% or more and less than 90%) | P: chickweed, herbicidal effect [20, 28]: 3 (Herbicidal rate of 40% or more and less than 70%) | G: green foxtail, herbicidal effect [21, 28]: 0 (Herbicidal rate of 5% or less (almost no effect)) | I: wild oat, herbicidal effect [22, 28]: 0 (Herbicidal rate of 5% or less (almost no effect)) | herbicidal effect on E (rice flat sedge), rating 0-5 ([23]; 80 g/ha): 5 (Herbicidal rate of 90% or more (almost completely withered)) | L: windgrass, herbicidal effect rating ([24]; AAH 80 g/ha): 0 (Herbicidal rate of 5% or less (almost no effect)) | R: persian speedwell, herbicidal effect rating ([25]; AAH 80 g/ha): 1 (Herbicidal rate of 5% or more and less than 20%) | H: barnyard grass, herbicidal effect rating ([26]; AAH 80 g/ha): 0 (Herbicidal rate of 5% or less (almost no effect)) | H: barnyard grass, herbicidal effect [27, 28]: 0 (Herbicidal rate of 5% or less (almost no effect))

CCCC(=O)Oc1c(C)nn(C)c(=O)c1-c1c(-c2ccc(F)cc2)sc2c(F)cccc12 [4-002]
herbicidal effect on Chinese sprangletop (D) ([1]; 320 g/ha): 2 (Herbicidal rate of 20% or more and less than 40%) | Herbicidal effect by soil treatment, K: Italian ryegrass [2, 29]: 0 (Herbicidal rate of 5% or less (almost no effect)) | Herbicidal effect by soil treatment, I: wild oat [3, 29]: 0 (Herbicidal rate of 5% or less (almost no effect)) | Herbicidal effect by soil treatment, G: green foxtail [4, 29]: 2 (Herbicidal rate of 20% or more and less than 40%) | Herbicidal effect by soil treatment, P: chickweed [5, 29]: 0 (Herbicidal rate of 5% or less (almost no effect)) | herbicidal effect on N: redroot pigweed (evaluation grade 0-5) [6, 30]: 5 (Herbicidal rate of 90% or more (almost completely withered)) | Herbicidal effect by soil treatment, J: blackgrass [7, 29]: 0 (Herbicidal rate of 5% or less (almost no effect)) | herbicidal effect on K: Italian ryegrass (evaluation grade 0-5) [8, 30]: 3 (Herbicidal rate of 40% or more and less than 70%) | herbicidal effect on L: windgrass (evaluation grade 0-5) [9, 30]: 0 (Herbicidal rate of 5% or less (almost no effect)) | Herbicidal effect by soil treatment, N: redroot pigweed [10, 29]: 3 (Herbicidal rate of 40% or more and less than 70%) | Herbicidal effect by soil treatment, M: velvetleaf [11, 29]: 2 (Herbicidal rate of 20% or more and less than 40%) | Herbicidal effect by soil treatment, F: southern crabgrass [12, 29]: 0 (Herbicidal rate of 5% or less (almost no effect)) | herbicidal effect on F: southern crabgrass (evaluation grade 0-5) [13, 30]: 0 (Herbicidal rate of 5% or less (almost no effect)) | herbicidal effect on J: blackgrass (evaluation grade 0-5) [14, 30]: 1 (Herbicidal rate of 5% or more and less than 20%) | herbicidal effect on M: velvetleaf (evaluation grade 0-5) [15, 30]: 5 (Herbicidal rate of 90% or more (almost completely withered)) | herbicidal effect on R: persian speedwell (evaluation grade 0-5) [16, 30]: 4 (Herbicidal rate of 70% or more and less than 90%) | Herbicidal effect by soil treatment, O: lambsquarters [17, 29]: 3 (Herbicidal rate of 40% or more and less than 70%) | herbicidal effect on O: lambsquarters (evaluation grade 0-5) [18, 30]: 3 (Herbicidal rate of 40% or more and less than 70%) | herbicidal effect on barnyard grass (H) ([19]; 320 g/ha): 5 (Herbicidal rate of 90% or more (almost completely withered)) | herbicidal effect on P: chickweed (evaluation grade 0-5) [20, 30]: 5 (Herbicidal rate of 90% or more (almost completely withered)) | herbicidal effect on G: green foxtail (evaluation grade 0-5) [21, 30]: 4 (Herbicidal rate of 70% or more and less than 90%) | herbicidal effect on I: wild oat (evaluation grade 0-5) [22, 30]: 0 (Herbicidal rate of 5% or less (almost no effect)) | herbicidal effect on rice flat sedge (E) ([23]; 320 g/ha): 5 (Herbicidal rate of 90% or more (almost completely withered)) | Herbicidal effect by soil treatment, L: windgrass [24, 29]: 0 (Herbicidal rate of 5% or less (almost no effect)) | Herbicidal effect by soil treatment, R: persian speedwell [25, 29]: 0 (Herbicidal rate of 5% or less (almost no effect)) | Herbicidal effect by soil treatment, H: barnyard grass [26, 29]: 4 (Herbicidal rate of 70% or more and less than 90%) | herbicidal effect on H: barnyard grass (evaluation grade 0-5) [27, 30]: 4 (Herbicidal rate of 70% or more and less than 90%)
